# Test results: patent publication US7138147B2, “Arsenic sulfide compounds and derivatives thereof for the treatment of malignancies” (priority 1998, dated 2006)
# Tests used:
# [1] = EPA/600/8-91/061; cited from earlier work
# [2] = Solubility of As4S4 in solvents; assay type: physicochemical; conditions: polyvinylpyrrolidone, pyrrolidone, alcohol, ether, di-sodium hydrophosphate, mercaptopurine, sodium bicarbonate; various concentrations
# Experimental: In other experiments, a number of solvents, such as polyvinylpyrrolidone, pyrrolidone, alcohol, ether, di-sodium hydrophosphate, mercaptopurine and sodium bicarbonate, were tested to increase solubility of As4S4. […] Accordingly, As4S4 solubilized in the above solvents is useful for intravenous administration.
# [3] = Side effects of arsenic disulfide treatment in patients; assay type: in vivo, human
# Description: (§1) Newly diagnosed, or relapsing patients are given a different protocol of treatment than are those patients who are in current remission. […] Preferably the dose given will range from approximately 0.5 to approximately 0.75 gram of arsenic disulfide. This equates to 2 to 3 capsules, according to the above formulation, by mouth for one dose. After the initial three days, the patient is given the compound three times daily until remission is induced. To prevent complications due to the potential build up of arsenic in the body, treatment should not exceed 100 days. In most cases, favorable response should be induced before forty days of treatment. These later doses may be somewhat reduced in amount compared to the original three day dosages. […] At this point, the patient should be reevaluated through testing, and allowed to rest before beginning another course of treatment according to the present protocol.
# (§2) The patient then abstains from treatment for a set period of time. During this time, the patient is tested. Treatment is adjusted according to test results with the period of abstention lasting from two weeks to 100 days, depending upon results. The length of the maintenance procedure varies according to patients' conditions, and may last as long as 3 years (including treating and resting periods). Each dose during this phase of treatment preferably contains arsenic disulfide in the range of approximately 0.50 to 0.75 gram. Once again the preferred method of administration is orally through use of a capsule as described above. Usually, a maintenance treatment is divided into two stages.
# (§3) Exclusion criteria for the study included history of hypersensitivity to arsenic compounds, previous treatment with arsenic-containing medications, patient in critical condition, excessively low or high white blood counts, existing heart, liver or kidney conditions, and severe infection. Three patients were excluded on these grounds, leaving 48 patients in the study. All 48 cases were treated with arsenic disulfide according to the above protocol. ATRA or other cytotoxic agents were not used. All 48 patients are living and Leukemia free as of April, 1998.
# Side effects of treatment with arsenic disulfide are minimal when compared to those of other antineoplastic agents. Potential side effects include loss of appetite, mild diarrhea, and transient reversible increase of aspartate aminotransferase (AST). A minority of patients experienced cutaneous itching or puffing of the eyelids, and mild leukopenia occurred slowly in 34% of patients. One patient had thrombocytopenia without bleeding. There were no deaths associated with the use of arsenic sulfide.
# non-Hodgkin's lymphoma = test: Case study 4: non-Hodgkin's lymphoma patient; assay type: in vivo, human; conditions: case study 4, resistant to conventional anticancer treatment; since March, 1998
# Description: as §1
# A person diagnosed with non-Hodgkin's lymphoma in September 1996 was treated with a combination chemotherapy regimen and had cranial irradiation for meningeal lymphoma. They also had high dose chemo-radiotherapy for autologous stem cell transplant. The patient has several relapses including intracranial relapse and a large amount of lymphoma cells in peripheral blood with typical clinical and laboratory features of lymphoma/leukemia. […]
# [4] = test system: chronic myeloid leukemia (CML); test: Case study 3: chronic myeloid leukemia patient; assay type: in vivo, human; conditions: case study 3, 0.6 gram twice daily
# Experimental: A person was diagnosed as having chronic myeloid leukemia (CML) in February, 1959. […] Initially, they were treated with Myleran. On Jan. 20, 1960, the white blood cell count was […] showing a differential count of 11% promyelocyte and myelocyte. […] Patient was given 0.6 gram of arsenic disulfide twice daily. While being treated, blood and bone marrow pictures were controlled. The patient died, on Sep. 5, 1965 from infection unrelated to the arsenic sulfide treatment.
# [5] = test system: acute promyelocytic leukemia (APL); test: Clinical treatment of APL patients with arsenic disulfide; assay type: in vivo, human
# Description: as §1, §2
# All patients who make up a part of the case studies have been diagnosed with APL on the basis of cell morphology of AML-M3, that is acute hypergranular promyelocytic leukemia, immunological cell markers, chromosomal analysis showing (15;17) translocation, and positive PML/RARα mRNA expression. Some patients were referred to the study with a diagnosis based solely on pathologic changes in cell morphology; these patients' diagnoses were tracked and reconfirmed throughout the study. Chronic myeloid leukemia and lymphoma patients have also benefitted from arsenic disulfide treatment, as illustrated by case studies 3 and 4.
# Fifty-one patients met the inclusion criteria for the study.
# as §3
# NB4 cells = conditions: in vitro, APL cell line; cited from earlier work
# refractory APL = conditions: intravenous 10 mg/day for 4–9 weeks; cited from earlier work
# [6] = in vivo; cited from earlier work
molecule,measurement,setting,value
S1[As]2S[As]3S[As]2S[As]13 [arsenic disulfide],carcinogenicity classification,[1],human carcinogens
same,solubility in solvents,[2],soluble
same,deaths associated with use,"[3]; human, in vivo",no deaths
same,thrombocytopenia without bleeding,"[3]; human, in vivo",One patient
same,"mild leukopenia, incidence",[3]; occurred slowly,34 % of patients
same,side effects compared to other antineoplastic agents,[3]; patients,minimal
same,clinical outcome,non-Hodgkin's lymphoma,in remission
same,blood and bone marrow pictures,[4],controlled
same,time to complete remission level,[5]; case study 1,36 days
same,blast cells and leukemic promyelocytes,"[5]; case study 1, Aug. 28, 1997",less than 5%
same,hemoglobin and platelet levels,"[5]; case study 1, FIG. 1",marked increase
same,blasts and white blood cells,"[5]; case study 1, FIG. 2",dramatic decrease
same,clinical outcome,"[5]; case study 1, newly diagnosed APL",complete remission
same,blasts and white blood cells,"[5]; case study 2, FIG. 4",dramatic change
same,clinical outcome,"[5]; case study 2, relapsed APL, treated 21 days",complete remission
same,patients living and leukemia free,"[5]; of 48 APL patients treated, as of April, 1998, no ATRA or cytotoxic agents",48 patients
same,patients attaining complete remission after one course of treatment,[5]; of ten newly diagnosed or relapsed patients,Eight
same,markers indicating residual leukemia cells after maintenance protocol,[5]; patients in complete remission before treatment with positive markers,persistently negative
same,"patients alive and remaining in complete remission, leukemia free",[5]; ten newly diagnosed or relapsed patients,All ten
arsenic trioxide,apoptosis (programmed cell death),NB4 cells,induced apoptosis
same,patients with complete morphologic remission,refractory APL,14 of 15
S=[As]S[As]=S (stereo not drawn) [arsenic trisulfide],carcinogenicity classification,[1],human carcinogens
same,tumorigenicity,[6],inconclusive
calcium arsenate [reference compound],tumorigenicity,[6],tumorigenic
